In patent US20140023611A1 (priority 2010, published 2014):

Columns and labels:
[1] = Stability of compounds in simulated gastric fluid (SGF); format: in vitro ADME; settings: simulated gastric fluid (3 mg/mL pepsin), incubation time 6 hr, relative to t=0
In short: (§1)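 Compounds at […] were incubated 3 or 6 hr in USP simulated gastric fluid with 3 mg/mL pepsin or simulated intestinal fluid with 3 mg/mL pancreatin. Remaining compound was quantified by HPLC-UV or HPLC-MS peak area % and reported as percent of the t=0 level in the same medium.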

[2] = Stability of compounds in simulated intestinal fluid (SIF); format: in vitro ADME; settings: simulated intestinal fluid (3 mg/mL pancreatin), incubation time 6 hr, relative to t=0
In short: as §1

human NaP2b (SLC34A2) = molecular target: T1, human NaP2b (SLC34A2) (Homo sapiens, UniProt O95436); assay: Inhibition of NaP2b-mediated Pi (33P) uptake in transfected HEK293 cells, human NaP2b; format: cell-based; settings: for IC50: read-out: pIC50 range for human NaP2b (converted)
T1 construct: host or cells: HEK293
T1 sequence (O95436 1-690): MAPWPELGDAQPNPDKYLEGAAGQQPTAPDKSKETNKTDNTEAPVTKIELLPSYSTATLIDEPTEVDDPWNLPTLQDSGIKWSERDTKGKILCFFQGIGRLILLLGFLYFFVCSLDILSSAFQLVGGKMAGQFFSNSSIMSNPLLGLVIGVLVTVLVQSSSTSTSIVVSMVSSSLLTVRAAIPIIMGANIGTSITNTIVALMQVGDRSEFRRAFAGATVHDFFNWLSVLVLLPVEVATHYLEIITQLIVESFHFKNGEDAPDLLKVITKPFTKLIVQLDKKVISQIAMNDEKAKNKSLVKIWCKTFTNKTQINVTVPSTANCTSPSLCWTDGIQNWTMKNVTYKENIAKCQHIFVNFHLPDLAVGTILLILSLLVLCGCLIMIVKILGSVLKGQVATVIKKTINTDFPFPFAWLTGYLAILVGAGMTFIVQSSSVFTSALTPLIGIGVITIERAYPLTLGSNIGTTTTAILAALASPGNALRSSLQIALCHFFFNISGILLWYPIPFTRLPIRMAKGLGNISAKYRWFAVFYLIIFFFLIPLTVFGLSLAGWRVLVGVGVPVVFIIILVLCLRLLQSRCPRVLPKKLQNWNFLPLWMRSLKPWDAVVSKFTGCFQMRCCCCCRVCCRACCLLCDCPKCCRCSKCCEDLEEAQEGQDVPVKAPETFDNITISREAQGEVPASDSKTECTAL
In short: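 HEK293 cells transiently transfected with human NaP2b (Thr inserted after residue 37, N39D), endogenous PiT transport pharmacologically silenced. Sodium or choline buffer, pH 7.4, with 100 uM KH2PO4, 33P orthophosphate and compound (0.1 nM–30 uM, twelve concentrations, duplicate). 3-30 min at room temperature, scintillation counting, pIC50 derived.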

rat NaP2b (SLC34A2) = molecular target: T2, rat NaP2b (SLC34A2) (Rattus norvegicus, UniProt Q9JJ09); assay: Inhibition of NaP2b-mediated Pi (33P) uptake in transfected HEK293 cells, rat NaP2b; format: cell-based; settings: 33P Pi uptake, 0.1 mM phosphate, value given as pIC50 range
T2 construct: host or cells: HEK293
T2 sequence (Q9JJ09 1-695): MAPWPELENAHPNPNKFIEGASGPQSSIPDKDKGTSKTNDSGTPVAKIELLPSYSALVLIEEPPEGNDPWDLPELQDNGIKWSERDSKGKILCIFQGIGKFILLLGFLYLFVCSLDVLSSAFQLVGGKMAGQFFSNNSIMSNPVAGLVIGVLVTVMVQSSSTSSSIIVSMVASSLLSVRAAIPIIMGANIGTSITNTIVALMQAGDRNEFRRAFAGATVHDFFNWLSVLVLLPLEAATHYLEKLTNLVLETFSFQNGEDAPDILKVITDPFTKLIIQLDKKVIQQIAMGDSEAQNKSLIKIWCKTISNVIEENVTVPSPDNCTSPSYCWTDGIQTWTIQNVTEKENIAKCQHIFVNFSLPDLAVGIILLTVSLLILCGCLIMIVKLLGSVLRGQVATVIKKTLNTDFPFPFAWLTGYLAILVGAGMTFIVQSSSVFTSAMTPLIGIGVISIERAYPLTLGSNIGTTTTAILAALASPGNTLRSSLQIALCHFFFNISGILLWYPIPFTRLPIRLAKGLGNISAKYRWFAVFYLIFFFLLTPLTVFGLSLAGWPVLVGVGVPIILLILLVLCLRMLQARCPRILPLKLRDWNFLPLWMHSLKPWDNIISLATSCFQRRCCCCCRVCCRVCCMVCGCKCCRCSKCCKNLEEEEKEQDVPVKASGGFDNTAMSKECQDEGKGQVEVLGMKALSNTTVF
In short: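 HEK293 cells were transiently transfected with NaP2b cDNA using Lipofectamine and grown near confluence. Compounds were tested at twelve concentrations from 0.1 nM to 30 uM in duplicate, and 33P-phosphate uptake was counted by scintillation after lysis. Results are expressed as pIC50.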

[3] = Determination of compound Cmax and AUC after oral gavage (plasma LC-MS/MS); format: in vivo, Sprague-Dawley rats; settings: Sprague-Dawley, rat, plasma, po, Structure (I) examples, Table 15, actual oral dose 3-15 mg/kg, plasma 0.5-4 h
In short: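 Sprague-Dawley rats dosed by oral gavage at nominal 2.5 or 10 mg/kg; blood drawn at 0.5, 1, 2 and 4 h into K2EDTA. Plasma protein-precipitated with acetonitrile plus internal standard and analysed by LC-MS/MS against a plasma standard curve to derive Cmax and AUC.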

Molecule	% remaining, SGF [1] [%]	% remaining, SIF [2]	IC50 (human NaP2b (SLC34A2)) [nM]	IC50 (rat NaP2b (SLC34A2)) [nM]	AUC [3] [ng·h/mL]	Cmax [3] [ng/mL]	pIC50 range for human NaP2b (human NaP2b (SLC34A2); 33P Pi uptake, transfected HEK293 cells, 0.1 mM phosphate, value given as pIC50 range)	pIC50 range for rat Nap2b (rat NaP2b (SLC34A2))
COCCOCCOCCOCCOCCOCCOCCOCCOCc1cccc(C(=O)Nc2ccc(OC3CCC3)cc2-c2cc(C(=O)N[C@H]3CCCc4ccccc43)ccn2)c1 [Example 205, (S)-2-(2-(3-(2,5,8,11,14,17,20,23,26-nonaoxaheptacosyl)benzamido)-5-cyclobutoxyphenyl)-N-(1,2,3,4-tetrahydronaphthalen-1-yl)isonicotinamide]	>80	>80%	< 1000	< 1000	–	–	–	–
CCN(CC)c1ccc(NC(=O)c2cccc(COCCOCCOCCOCCOCCOCCOC(=O)N(C)CCN3CCOCC3)c2)c(-c2cc(C(=O)NCc3cccc(C(F)(F)F)c3)ccn2)c1 [Example 170, 1-(3-(4-(diethylamino)-2-(4-(3-(trifluoromethyl)benzylcarbamoyl)pyridin-2-yl)phenylcarbamoyl)phenyl)-2,5,8,11,14,17-hexaoxanonadecan-19-yl methyl(2-morpholinoethyl)carbamate]	>80	60-80%	< 1000	1000 to 7940	–	–	–	–
CCN(CC)c1ccc(NC(=O)c2cccc(COCCOCCOCCOCCOCCOCCOC(=O)N(CCO)CCO)c2)c(-c2cc(C(=O)NCc3cccc(C(F)(F)F)c3)ccn2)c1 [Example 172, 1-(3-(4-(diethylamino)-2-(4-(3-(trifluoromethyl)benzylcarbamoyl)pyridin-2-yl)phenylcarbamoyl)phenyl)-2,5,8,11,14,17-hexaoxanonadecan-19-yl bis(2-hydroxyethyl)carbamate]	>80	>80%	< 1000	1000 to 7940	–	–	–	–
1-(3-(4-(diethylamino)-2-(4-(3-(trifluoromethyl)benzylcarbamoyl)pyridin-2-yl)phenylcarbamoyl)phenyl)-2,5,8,11,14,17-hexaoxanonadecan-19-yl 2,5,8,11,14,17,20-heptaoxadocosan-22-ylcarbamate [Example 174]	>80	>80%	–	–	–	–	>6.0	5.1-6.0
CCN(CC)c1ccc(NC(=O)c2cccc(COCCOCCOCCOCCOCCOCCOC(=O)N3CCC(CCOCCO)CC3)c2)c(-c2cc(C(=O)NCc3cccc(C(F)(F)F)c3)ccn2)c1 [Example 171, 1-(3-(4-(diethylamino)-2-(4-(3-(trifluoromethyl)benzylcarbamoyl)pyridin-2-yl)phenylcarbamoyl)phenyl)-2,5,8,11,14,17-hexaoxanonadecan-19-yl 4-(2-(2-hydroxyethoxy)ethyl)piperidine-1-carboxylate]	>80	>80%	< 1000	1000 to 7940	–	–	–	–
CCN(CC)c1ccc(NC(=O)c2cccc(C(=O)N(C)CCN(CCOC)CCOCCOCCOCCOCCOCCOCCOC)c2)c(-c2cc(C(=O)N[C@H]3CCCc4ccccc43)ccn2)c1 [Example 328, (S)—N1-(4-(diethylamino)-2-(4-(1,2,3,4-tetrahydronaphthalen-1-ylcarbamoyl)pyridin-2-yl)phenyl)-N3-(23-(2-methoxyethyl)-2,5,8,11,14,17,20-heptaoxa-23-azapentacosan-25-yl)-N3-methylisophthalamide]	>80	>80%	1000 to 7940	1000 to 7940	–	–	–	–
COCCOCCOCCOCCOCCOCCOCCOCCOCc1cccc(C(=O)Nc2ccc(OC3CCC3)cc2-c2cc(C(=O)NCc3cccc(C(F)(F)F)c3)ccn2)c1 [Example 202, 2-(2-(3-(2,5,8,11,14,17,20,23,26-nonaoxaheptacosyl)benzamido)-5-cyclobutoxyphenyl)-N-(3-(trifluoromethyl)benzyl)isonicotinamide]	>80	>80%	< 1000	1000 to 7940	–	–	–	–

The next lines start with the values.

% remaining, SGF [1] [%]	% remaining, SIF [2]	IC50 (human NaP2b (SLC34A2)) [nM]	IC50 (rat NaP2b (SLC34A2)) [nM]	AUC [3] [ng·h/mL]	Cmax [3] [ng/mL]	pIC50 range for human NaP2b (human NaP2b (SLC34A2); 33P Pi uptake, transfected HEK293 cells, 0.1 mM phosphate, value given as pIC50 range)	pIC50 range for rat Nap2b (rat NaP2b (SLC34A2))	Molecule
>80	60-80%	< 1000	< 1000	–	–	–	–	CCN(CC)c1ccc(NC(=O)c2cccc(COCCOCCOCCOCCOCCOCCOC(=O)NCCN3CCOCC3)c2)c(-c2cc(C(=O)NCc3cccc(C(F)(F)F)c3)ccn2)c1 [Example 169, 1-(3-(4-(diethylamino)-2-(4-(3-(trifluoromethyl)benzylcarbamoyl)pyridin-2-yl)phenylcarbamoyl)phenyl)-2,5,8,11,14,17-hexaoxanonadecan-19-yl 2-morpholinoethylcarbamate]
>80	>80%	< 1000	< 1000	< 10	< 10	–	–	COCCNC(=O)[C@H]1CCCN(C(=O)c2cccc(C(=O)Nc3ccc(N4CCCCC4)cc3-c3cc(C(=O)N[C@H]4CCCc5ccccc54)ccn3)c2)C1 [Example 254, 2-(2-(3-((S)-3-(2-methoxyethylcarbamoyl)piperidine-1-carbonyl)benzamido)-5-(piperidin-1-yl)phenyl)-N—((S)-1,2,3,4-tetrahydronaphthalen-1-yl)isonicotinamide]
>80	>80%	1000 to 7940	1000 to 7940	–	–	–	–	CCCN(CCC)c1ccc(NC(=O)c2cccc(C(=O)N(C)CCOCCOCCOCCC(=O)O)c2)c(-c2cc(C(=O)NCc3cccc(C(F)(F)F)c3)ccn2)c1 [Example 117]
>80	>80%	1000 to 7940	1000 to 7940	–	–	–	–	COCCOCCOCCOCCOCCOCCOCCOCCNC(=O)CCOCCOCCOCCOCCCc1cccc(C(=O)Nc2ccc(N3CCCCC3)cc2-c2cc(C(=O)NCc3cccc(C(F)(F)F)c3)ccn2)c1 [Example 275]
<20	>80%	< 1000	< 1000	< 30	< 10	–	–	CCN(CC)c1ccc(NC(=O)c2cccc(C(=O)N(C)CCN(C)CCOCCOCCOCCNC(=O)OC(C)(C)C)c2)c(-c2cc(C(=O)N[C@H]3CCCc4ccccc43)ccn2)c1 [Example 339, (S)-tert-Butyl 1-(3-(4-(diethylamino)-2-(4-(1,2,3,4-tetrahydronaphthalen-1-ylcarbamoyl)pyridin-2-yl)phenylcarbamoyl)phenyl)-2,5-dimethyl-1-oxo-8,11,14-trioxa-2,5-diazahexadecan-16-ylcarbamate]
>80	>80%	1000 to 7940	< 1000	< 30	< 10	–	–	CN(CCCN1CCOCC1)C(=O)c1cccc(C(=O)Nc2ccc(N3CCCCC3)cc2-c2cc(C(=O)N[C@H]3CCCc4ccccc43)ccn2)c1 [Example 126, (S)—N1-methyl-N1-(3-morpholinopropyl)-N3-(4-(piperidin-1-yl)-2-(4-(1,2,3,4-tetrahydronaphthalen-1-ylcarbamoyl)pyridin-2-yl)phenyl)isophthalamide]
